Measurements reported in PMC6158578, “Optimization and Lead Selection of Benzothiazole Amide Analogs Toward a Novel Antimycobacterial Agent” (Frontiers in Microbiology, 2018).
Converted amounts (≈) assume the structure as drawn.

How the values were obtained:
Assay in all cases: microbe, parasite or virus in culture
Type in all cases: cell-based, M. tuberculosis
Conditions in all cases: Mycobacterium tuberculosis
[1] = system: Fluoroquinolone-resistant Mtb
[2] = system: Isoniazid-resistant Mtb strain 1
[3] = system: Isoniazid-resistant Mtb strain 2
[4] = system: Rifampin-resistant Mtb strain 1
[5] = system: Rifampin-resistant Mtb strain 2

CC12CC3CC(C)(C1)CC(C(=O)Nc1nc4ccc(OC(F)(F)F)cc4s1)(C3)C2 [CRS400226]
IC90 [1]: 3.7 µg/mL (≈ 8.72 µM)
IC90 [2]: 3.9 µg/mL (≈ 9.19 µM)
IC90 [3]: 4.2 µg/mL (≈ 9.89 µM)
IC90 [4]: 3.9 µg/mL (≈ 9.19 µM)
IC90 [5]: 4.7 µg/mL (≈ 11.1 µM)
